In publication PMC4569415, “Pro-Oxidant Activity of Amine-Pyridine-Based Iron Complexes Efficiently Kills Cancer and Cancer Stem-Like Cells” (PLoS ONE, 2015):
Where two headings read alike, the source gives them in different places.

How the values were obtained:
MCF-7 and CAPAN-1 cells = assay: MTT cell viability with modulators (QVD-Oph, FeCl2); format: cell-based, human; conditions: 48 h; for effect of FeCl2 co-incubation on cytotoxicity of the ligand: FeCl2 100 μmol/L co-incubation, 2 at 5 μmol/L, 1 and 5 at 10 μmol/L
Protocol: (§1) The cytotoxic activity of the compounds was determined by MTT reduction assay as described. Compounds were diluted in Milli-Q water to obtain 1 mmol/L stock solutions. Appropriate aliquots of these solutions were diluted in the corresponding cell culture medium to obtain the final working concentrations. Aliquots of 5000 1BR3G cells, 6000 MCF-7, 6000 PC-3 cells, 10 000 CAPAN-1 cells, 4000 MCF 10A cells, 4000 HMLE cells or 4000 CCD-18Co cells were seeded in 96-well plates, 24 h prior to the treatments. Hematological cell lines were seeded at 400 000 cells/mL. Cells were treated with the corresponding compound at concentrations ranging from 0 to 100 μmol/L for 48 h. Three replicates for each compound were used. The IC50 was established for each compound by standard non-linear regression and curve fitting using GraphPad Prism (Graph Pad software Inc., La Jolla, CA, USA).
Fig 4 Induction of caspase activity. (A) The indicated cell lines were treated for 48 h with compounds 1, 2 and 5 (10 μmol/L) and caspase 3/7 activity was measured as indicated in Materials and Methods. Bar charts show the fold increase in caspase activity relative to untreated (control) and represent the mean±SD from three independent experiments performed in triplicate. (B) MCF-7 and CAPAN-1 cells were treated for 48 h with the ligands (10 μM) in the absence (-) or presence (+) of the pan-caspase inhibitor QVD-Oph (20 μM) and cell viability was measured with the MTT assay. […] Data represents the mean ± SD of 3 independent experiments performed in triplicate. The differences between absence and presence of QVD-OPh treatment were statistically significant at * p<0.05, **p<0.01 and ***p<0.001.
Fig 9 Effects of iron on 1, 2 and 5 activity. (A) Effect of 2 h FeCl2 pre-incubation (FeCl2 p) (dotted line) or co-incubation (FeCl2 c) (dashed line) at 1, 10 or 100 μmol/L on the cytotoxicity of 2 (5 μmol/L) in MCF-7 and CAPAN-1 cells. FeCl2 alone was included as a control (solid line). Cell viability was determined after 48 h of treatment by the MTT assay. (B) Effect of FeCl2 pre-incubation or co-incubation (100 μmol/L) on the cytotoxicity of 2 (5 μmol/L), 1 and 5 (10 μmol/L). Cells treated with the ligands alone were included as a reference (control). (C) ROS induction in CAPAN-1 cells after 24 h treatment with 2 (10 μmol/L) alone, together with FeCl2 or after FeCl2 pre-incubation (at 100 μmol/L). Results are presented as a percentage of untreated cells and represent mean±SD of 3 independent experiments. *p < 0.05 versus control cells.

caspase 3/7 = assay: Caspase-Glo 3/7 luminometric assay; format: cell-based; conditions: 10 μmol/L, 48 h, panel of human cancer cell lines
Protocol: Enzymatic caspase activity was determined after exposing the cells to compound 1, 2 and 5 at 10 μmol/L for 48 h. Caspase 3/7 activity was measured with the luminometric Caspase-Glo 3/7assay (Promega, Madison, WI, USA) using a Synergy HT multi-detection microplate reader (Bio-Tek).

[1] = system: human leukemia, lymphoma and glioma cancer cells; assay: MTT cell viability at 10 μmol/L, cell line panel; format: cell-based; conditions: 48 h
Protocol: as §1
(§2) Fig 2 Cell viability assay. (A) Cytotoxic activity of compounds 1, 2, and 5 against cancer cells. The indicated cell lines were treated for 48 h with ligands (10 μmol/L) and cell viability was measured with the MTT assay. Data represents the percentage of viable cells relative to untreated cells (control). (B) Cytotoxicity of doxorubicin and compounds 1, 2 and 5 against CS-like cells. CS-like HMLER-shEcad cells and non-CS-like HMLER isogenic parental cells were treated for 48 h with graded concentrations of doxorubicin, 1, 2 and 5. Cell viability was measured with the MTT assay. For each treatment, the percentage of viable cells relative to untreated cells is indicated. Data represents the mean±SD of 3 independent experiments performed in triplicate.

CAPAN-1 cells [2] = assay: MTT cytotoxicity assay; format: cell-based, human; conditions: for viability at 5 µM / IC50 / viability at 10 µM: Homo sapiens; for viability at 5 µM: CAPAN-1, compound 5 μmol/L; for viability at 5 µM / viability at 10 µM: read-out: CAPAN-1 cell viability; for IC50: CAPAN-1, MTT, 48 h of compound exposure; for viability at 10 µM: CAPAN-1, compound 10 μmol/L
Protocol: as §1

MCF-7 cells [3] = assay: MTT cytotoxicity assay; format: cell-based, human; conditions: for IC50: Homo sapiens, MCF7, MTT, 48 h of compound exposure
Protocol: as §1

MCF-7 cells [4] = assay: Cellular labile iron pool with calcein-AM; format: cell-based, human; conditions: MCF-7, pre-incubation with ligands
HMLER cells = assay: MTT cytotoxicity assay in non-CS-like parental cells; format: cell-based; conditions: Homo sapiens, 48 h
Protocol: as §1, §2

Z-138 = assay: MTT cytotoxicity assay; format: cell-based; conditions: Homo sapiens, 48 h of treatment
Protocol: as §1

JURKAT = assay: MTT cytotoxicity assay; format: cell-based; conditions: Homo sapiens, 48 h of treatment
Protocol: as §1

HMLE = assay: MTT cytotoxicity assay; format: cell-based; conditions: Homo sapiens, 48 h of treatment, non malignant cells
Protocol: as §1

1BR3G = assay: MTT cytotoxicity assay; format: cell-based; conditions: Homo sapiens, 48 h of treatment, non malignant cells
Protocol: as §1

CCD-18Co = assay: MTT cytotoxicity assay; format: cell-based; conditions: Homo sapiens, 48 h of treatment, non malignant cells
Protocol: as §1

PC-3 = assay: MTT cytotoxicity assay; format: cell-based; conditions: Homo sapiens, 48 h of treatment
Protocol: as §1

MCF-10A = assay: MTT cytotoxicity assay; format: cell-based; conditions: Homo sapiens, 48 h of treatment, non malignant cells
Protocol: as §1

CAPAN-1 cells [5] = assay: Cellular labile iron pool with calcein-AM; format: cell-based, human; conditions: CAPAN-1, 10 μmol/L, 24 h
Protocol: The cellular labile iron pool was determined with calcein-AM. CAPAN-1 cells (125 000 cells/ well) were seeded in 24-well plates and incubated for 24 h. Then, cells were treated for 24 h with 10 μmol/L of compound 1, 2 or 5 at 37°C. In some experiments, cells were incubated for 2 h with 100 μmol/L of DFO or 100 μmol/L FeCl2. Cells exposed to the vehicle alone were used as a control. After treatments, cells were washed with PBS and incubated with calcein-AM (0.25 μmol/L) for 30 min at 37°C in the dark. Subsequently, cells were washed and collected with trypsin and the geometric mean fluorescence intensity of 10 000 cells was determined by flow cytometry as described.

[6] = compound 5 μmol/L, pretreated with 100 μmol/L FeCl2 for 2 h
[7] = compound 10 μmol/L, FeCl2 100 μmol/L pre-incubation

Structure (SMILES)	effect of FeCl2 co-incubation on cytotoxicity of the ligand (MCF-7 and CAPAN-1 cells)	caspase 3/7 activation (caspase 3/7)	antiproliferative activity at 10 μmol/L [1]	IC50 (CAPAN-1 cells [2]) [µM]	IC50 (MCF-7 cells [3]) [µM]	calcein fluorescence compared with untreated cells (MCF-7 cells [4])	IC50 (HMLER cells) [µM]	IC50 (Z-138) [µM]	IC50 (JURKAT) [µM]	IC50 (HMLE) [µM]	IC50 (1BR3G) [µM]	IC50 (CCD-18Co) [µM]	IC50 (PC-3) [µM]	IC50 (MCF-10A) [µM]	calcein fluorescence intensity, % of untreated cells (CAPAN-1 cells [5]) [%]	also measured
CN(C)c1ccnc(CN2CCC[C@H]2[C@@H]2CCCN2Cc2cc(N(C)C)ccn2)c1 [Compound 2]	clearly inhibited	clearly increased caspase 3/7 activity in all cell lines	high antiproliferative activity	6 ± 0.7	3.7 ± 0.4	133.8±10.02%	6.6 ± 0.3	4.4 ± 0.3	7.2 ± 1.9	7 ± 0.3	7.5 ± 0.5	20.7 ± 0.3	3.8 ± 0.2	6.5 ± 1.3	136.8±11.7	increase in cell viability by pan-caspase inhibitor QVD-Oph (MCF-7 and CAPAN-1 cells; ligand 10 μM, QVD-Oph 20 μM): lack of reversion; viability at 5 µM (CAPAN-1 cells [2]; absence of NAC): 23.9 ± 2.9%; viability at 5 µM (CAPAN-1 cells [2]; presence of 5 mmol/L NAC): 33.6 ± 3.8%; increase in cell survival by NAC (CAPAN-1 cells [2]; compound 5 μmol/L, 5 mmol/L NAC): 40.6%; reduction in CAPAN-1 cell viability in FeCl2-pretreated cells (CAPAN-1 cells [2]; [6]): 37.7%; reduction in MCF-7 cell viability in FeCl2-pretreated cells (MCF-7 cells [3]; [6]): 51.8%
c1ccc(CN2CCC[C@H]2[C@@H]2CCCN2Cc2ccccn2)nc1 [Compound 1]	inhibited the cytotoxicity of the ligand in CAPAN-1, but not in MCF-7 cells	significant caspase 3/7 activation in lymphoma (Z-138, Jeko-1, Granta and SP-53) but not in leukemia (JURKAT) or glioma (LN229 and U87MG) cell lines	high antiproliferative activity	9.9 ± 1.01	7.4 ± 0.2	131.4±13.2%	6.5 ± 0.4	4.8 ± 1.2	15.1 ± 3.1	6.4 ± 4	12.7 ± 1.6	27 ± 4.4	8.5 ± 1.4	18.8 ± 2.9	141.4±19.5	viability at 10 µM (CAPAN-1 cells [2]; presence of NAC): 45.2 ± 5.4%; viability at 10 µM (CAPAN-1 cells [2]; without NAC): 40.7 ± 6.9%; enhancement of cytotoxicity by FeCl2 pretreatment, CAPAN-1 (CAPAN-1 cells [2]; [7]): 25.5%; enhancement of cytotoxicity by FeCl2 pretreatment, MCF-7 (MCF-7 cells [3]; [7]): 58.6%
CN1CCN(Cc2ccccn2)CCN(Cc2ccccn2)CC1 [Compound 5]	Neither pretreatment nor co-incubation with FeCl2 affected	activating caspase 3/7 in most cell lines except PC-3 cells	high antiproliferative activity	7.9 ± 0.5	7.7 ± 0.3	only a moderate iron-chelating effect	5.1 ± 0.1	2.9 ± 0.4	5.4 ± 1.3	6.1 ± 0.1	18 ± 4.2	53.5 ± 3.5	7.7 ± 0.3	23.8 ± 1.3	144.6±13.8	effect of NAC on cytotoxicity (CAPAN-1 cells [2]; CAPAN-1, NAC 5 mmol/L): no protective effect of NAC
